These results are taken from ChEMBL document CHEMBL1121815, “Chemically reactive estrogens: synthesis and estrogen receptor interactions of hexestrol ether derivatives and 4-substituted deoxyhexestrol derivatives bearing alkylating functions” (J Med Chem, 1981).

Series [1] concerns the target T1, Estrogen receptor (Ovis aries) (UniProt P49885+Q9TU15). Description: Binding affinity against estrogen receptor in lamb uterine cytosol, relative to that of [3H]estradiol. In kind it is protein assay.
The target in series [2] is T1, Estrogen receptor (Ovis aries). Description: Inactivation of lamb uterine estrogen receptor. In kind it is protein assay. Further details: concentration or dose not given beside the values.
A short description of series [3]: Half life was determined. In kind it is ADME. Particulars: rat.

Usually half-life stands for the time needed for the level to fall by half in the phase considered.

SMILES strings stand for the structures.

With `CC[C@H](c1ccc(O)cc1)[C@@H](CC)c1ccc(OCC(=O)C=[N+]=[N-])cc1`, in series [1], the Binding affinity worked out at 2%. In turn, `CC[C@H](c1ccc(O)cc1)[C@@H](CC)c1ccc(OCC(O)CBr)cc1` (stereo partly drawn) showed a Binding affinity in series [1] of 3.2%. In series [2], this compound displayed an Inactivation of 36%. Besides, the half-life in series [3] is 30 min.

For the compound `CC[C@H](c1ccc(O)cc1)[C@@H](CC)c1ccc(C(=O)CBr)cc1`, the Binding affinity in series [1] worked out at 1.1%. Besides, the Inactivation in series [2] was determined as 44%. The compound further displayed a half-life in series [3] of under 30 min.

`CC[C@H](c1ccc(O)cc1)[C@@H](CC)c1ccc(OCC(C)=O)cc1`: the Binding affinity in series [1] was 11%. Still for that read-out and setting: the result for `CC[C@H](c1ccc(O)cc1)[C@@H](CC)c1ccc(C(C)=O)cc1` reads 4.1%; that for `CC[C@H](c1ccc(O)cc1)[C@@H](CC)c1ccc(C#N)cc1`, 5.2%. Consider `CC[C@H](c1ccc(O)cc1)[C@@H](CC)c1ccc(OCCOCCCl)cc1`, for which the Binding affinity in series [1] worked out at 0.9%. Still for that read-out and setting: the result for `CC[C@H](c1ccc(O)cc1)[C@@H](CC)c1ccc(N)cc1` reads 95%. `CC[C@H](c1ccc(O)cc1)[C@@H](CC)c1ccc(OCC2CO2)cc1` (stereo partly drawn): in series [1], the Binding affinity worked out at 7.4%. In series [2], this compound gave an Inactivation of 44%. In addition, the half-life in series [3] is 240 min. Turning to `CCOC(=O)COc1ccc([C@H](CC)[C@H](CC)c2ccc(O)cc2)cc1`, the Binding affinity in series [1] was 2.2%. As to `CC[C@H](c1ccc(O)cc1)[C@@H](CC)c1ccc(OCCO)cc1`, the Binding affinity in series [1] is 21%. `CC[C@H](c1ccc(O)cc1)[C@@H](CC)c1ccc(C(=O)CCl)cc1` came in with a Binding affinity in series [1] of 0.44%. Further, the Inactivation in series [2] is 29%. Further, in series [3], the half-life was 30 min. In turn, `CC[C@H](c1ccc(O)cc1)[C@@H](CC)c1ccc(S(=O)(=O)N=[N+]=[N-])cc1` returned a Binding affinity in series [1] of 1.8%. `CC[C@H](c1ccc(O)cc1)[C@@H](CC)c1ccc(OCC(=O)CBr)cc1` came in with a Binding affinity in series [1] of 9.5%. This compound registered an Inactivation in series [2] of 24%. For the same compound, the half-life in series [3] was under 30 min.

`CCC(c1ccc(O)cc1)C(CC)c1ccc(OC)cc1` (stereo not drawn) displayed a Binding affinity in series [1] of 17%. The compound `CC[C@H](c1ccc(O)cc1)[C@@H](CC)c1ccc(CBr)cc1` had a Binding affinity in series [1] of 9.3%. The Inactivation in series [2] came out at 70%. In series [3], this compound gave a half-life of 150 min.

`CC[C@H](c1ccc(O)cc1)[C@@H](CC)c1ccc(OCC(O)CCl)cc1` (stereo partly drawn) showed a Binding affinity in series [1] of 4%. In addition, the Inactivation in series [2] worked out at 24%. Also, the half-life in series [3] was 30 min. `CC[C@H](c1ccc(O)cc1)[C@@H](CC)c1ccc(OCC(C)O)cc1` (stereo partly drawn) registered a Binding affinity in series [1] of 4.3%.

For `CC[C@H](c1ccc(O)c(CCCO)c1)[C@@H](CC)c1ccc(O)cc1`, the Binding affinity in series [1] is 12%. Compound `CC[C@H](c1ccc(O)cc1)[C@@H](CC)c1ccc(OC)cc1` had a Binding affinity in series [1] of 19%. For `CC[C@H](c1ccc(O)cc1)[C@@H](CC)c1ccc(N=[N+]=[N-])cc1`, in series [1], the Binding affinity was 5.7%. In turn, `C=CCOc1ccc([C@H](CC)[C@H](CC)c2ccc(O)cc2)cc1` had a Binding affinity in series [1] of 5.4%. Take `CC[C@H](c1ccc(O)cc1)[C@@H](CC)c1ccc(OCC(=O)CCl)cc1`: the Binding affinity in series [1] worked out at 10%. In addition, the Inactivation in series [2] is 31%. The half-life in series [3] was 15 min.

The compound `CC[C@H](c1ccc(O)cc1)[C@@H](CC)c1ccc(S(=O)(=O)F)cc1` had a Binding affinity in series [1] of 0.33%. Moreover, the Inactivation in series [2] stood at 24%. Further, the half-life in series [3] is 60 min. As to `CC[C@H](c1ccc(O)cc1)[C@@H](CC)c1ccc([N+](=O)[O-])cc1`, the Binding affinity in series [1] turned out to be 11%.

In series [1], `CC[C@H](c1ccc(O)cc1)[C@@H](CC)c1ccc(CO)cc1` showed a Binding affinity of 40%.

As to `CC[C@H](c1ccc(O)cc1)[C@@H](CC)c1ccc(OCC(O)CO)cc1` (stereo partly drawn), the Binding affinity in series [1] came out at 6.9%. Take `C=CCc1cc([C@@H](CC)[C@@H](CC)c2ccc(O)cc2)ccc1O`: the Binding affinity in series [1] was found to be 54%. For `CCOC(=N)c1ccc([C@H](CC)[C@H](CC)c2ccc(O)cc2)cc1`, the Binding affinity in series [1] stood at 1.9%. `CC[C@H](c1ccc(O)cc1)[C@@H](CC)c1ccc(C(=O)O)cc1` yielded a Binding affinity in series [1] of 1.8%. In turn, `CC[C@H](c1ccc(O)cc1)[C@@H](CC)c1ccc(OCC(=O)O)cc1` returned a Binding affinity in series [1] of 0.12%. Turning to `CCOCc1ccc([C@H](CC)[C@H](CC)c2ccc(O)cc2)cc1`, in series [1], the Binding affinity was found to be 4.9%.

In turn, `CC[C@H](c1ccc(O)cc1)[C@@H](CC)c1ccc(CCl)cc1` registered a Binding affinity in series [1] of 8%. Further, the Inactivation in series [2] worked out at 63%. This compound also had a half-life in series [3] of 78 min.
